PMC9416257, “Design, Synthesis and Preliminary Evaluation of the Cytotoxicity and Antibacterial Activity of Novel Triphenylphosphonium Derivatives of Betulin” (Molecules, 2022)

How the values were obtained:
Assay in all cases: Antibacterial assay, optical density of culture in TSB; on Difference between optical density before and after culture, Escherichia coli ATCC 25922: key: 0: no difference between samples after 18 h of bacteria culture (bacteria grow was inhibited); neg: negative results (analog BN did not inhibit bacteria growing)
Conditions in all cases: 37 °C, 18 h
[1] = tested on: Escherichia coli ATCC 25922; format: cell-based; further: key: 0: no difference between samples after 18 h of bacteria culture (bacteria grow was inhibited); neg: negative results (analog BN did not inhibit bacteria growing)
Description: (§1) Investigations were carried out using different concentrations of solutions from 25 to 250 µM. A 25 µM concentration of the tested derivatives was not enough to inhibit the growth of […]. When the concentration of analogs 7d–7f and 9a–9c increased to 200 µM, the growth of S. aureus ATCC 25923 and S. epidermidis ATCC 12228 was inhibited. Furthermore, the optical density of all compounds remained unchanged after 18 h of bacteria culture. In the case of analogs 7a–7c, the optical density values were between 0.9 and 2.2 when they were cultured with S. aureus ATCC 25923. The bacterial growth was slower compared to the control sample (TSB-culture medium). […] In the case of analog 7c, the optical density increased up to […] after 18 h of the sample culture with both kinds of Gram-positive bacteria. In contrast, the reference sample’s (TSB) optical density increased to 7.5 for S. aureus ATCC 25923, and 4.9 for S. epidermidis ATCC 12228 after 18 h of bacteria culture. […] All of the analog values of the measured optical density were similar to that of the reference sample (5.0–5.1, Table 3).
(§2) Antibacterial analysis was performed using the S. aureus ATCC 25923, S. epidermidis ATCC 12228, and Escherichia coli ATCC 25922 bacteria strains. The test compounds were dissolved in DMSO to obtain a stock solution with a concentration of 5 mM (betulin) or 10 mM (other test compounds). The stock solution was diluted with water to the desired concentration (25–250 µM). Then, 1 mL of the investigated solutions was mixed with 1 mL of culture medium (TSB, Biomaxima, Lublin, Poland) in a sterile glass tube. The initial concentration of bacteria was around 5 × 10^6 CFU/mL. The concentration of bacteria was measured using an optical densitometer before and after 18 h of bacteria culture in glass tubes at 37 °C (incubator POL-EKO, Wodzislaw Slaski, Poland). The investigations were repeated for three independent samples. The control sample was the culture medium without any supplementation.

[2] = tested on: S. epidermidis ATCC 12228; format: cell-based, Staphylococcus epidermidis
Description: as §1, §2

S. aureus ATCC 25923 = format: cell-based, Staphylococcus aureus
Description: as §1, §2

| SMILES | Difference between optical density before and after culture, Escherichia coli ATCC 25922 ([1]; 200 μM) | Difference between optical density before and after culture, Escherichia coli ATCC 25922 ([1]; 250 μM) | Difference between optical density before and after culture, S. epidermidis ATCC 12228 ([2]; 200 μM) | Difference between optical density before and after culture, S. epidermidis ATCC 12228 ([2]; 250 μM) | Difference between optical density before and after culture, S. aureus ATCC 25923 (S. aureus ATCC 25923; 200 μM) | Difference between optical density before and after culture, S. aureus ATCC 25923 (S. aureus ATCC 25923; 250 μM) |
| --- | --- | --- | --- | --- | --- | --- |
| C=C(C)[C@@H]1CC[C@]2(COC(=O)CC(C)(C)C(=O)OCCCC[P+](c3ccccc3)(c3ccccc3)c3ccccc3)CC[C@]3(C)C(CCC4[C@@]5(C)CC[C@H](OC(C)=O)C(C)(C)C5CC[C@]43C)C12 (stereo partly drawn) [7e, 3-O-Acetyl-28-O’-(3’,3’-dimethyl-3’-(4"-triphenylphosphoniobutyloxycarbonyl)propanoyl)betulin bromide] | neg | neg | 0 | 0 | 0 | 0 |
| C=C(C)[C@@H]1CC[C@]2(COC(=O)CC(C)(C)C(=O)OCCC[P+](c3ccccc3)(c3ccccc3)c3ccccc3)CC[C@]3(C)C(CCC4[C@@]5(C)CC[C@H](OC(C)=O)C(C)(C)C5CC[C@]43C)C12 (stereo partly drawn) [7d, 3-O-Acetyl-28-O’-(3’,3’-dimethyl-3’-(3"-triphenylphosphoniopropyloxycarbonyl)propanoyl)betulin bromide] | neg | neg | 0 | 0 | 0 | 0 |
